Test results: patent publication US9765067B2, “Thiophen-2-yl-pyridin-2-yl-1H-pyrazole-4-carboxylic acid derivatives and the use thereof as soluble guanylate cyclase activators” (Novartis AG, priority 2014, dated 2017)
Where “and” joins values, the source holds several entries; their conditions need not be identical. Equal entries are not always repeated.

Target: T1, soluble guanylate cyclase (human GUCYA3/GUCYB3) overexpressed in CHO cells (Homo sapiens, UniProt Q02108+Q02153)
T1 construct: expressed in transfected cells
T1 sequence (Q02108 1-690 partner): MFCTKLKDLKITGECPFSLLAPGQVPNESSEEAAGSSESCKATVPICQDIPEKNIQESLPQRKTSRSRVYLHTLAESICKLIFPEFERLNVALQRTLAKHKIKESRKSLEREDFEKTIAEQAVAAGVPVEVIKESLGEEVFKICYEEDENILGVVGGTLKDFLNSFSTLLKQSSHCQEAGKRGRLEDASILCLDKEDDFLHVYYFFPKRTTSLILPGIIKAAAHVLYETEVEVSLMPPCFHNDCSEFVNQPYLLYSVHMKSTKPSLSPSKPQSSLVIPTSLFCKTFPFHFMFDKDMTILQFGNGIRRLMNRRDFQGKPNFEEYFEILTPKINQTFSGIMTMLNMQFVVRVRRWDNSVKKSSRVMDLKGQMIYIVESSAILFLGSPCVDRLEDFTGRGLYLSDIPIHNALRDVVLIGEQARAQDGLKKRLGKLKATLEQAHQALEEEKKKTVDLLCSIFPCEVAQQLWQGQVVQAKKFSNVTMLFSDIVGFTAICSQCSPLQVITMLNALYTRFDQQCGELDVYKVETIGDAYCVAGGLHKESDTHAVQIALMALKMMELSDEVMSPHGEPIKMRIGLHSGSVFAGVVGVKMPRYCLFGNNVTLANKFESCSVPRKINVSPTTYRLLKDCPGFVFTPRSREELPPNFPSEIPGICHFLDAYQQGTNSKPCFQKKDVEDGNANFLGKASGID
T1 sequence (Q02153 1-619): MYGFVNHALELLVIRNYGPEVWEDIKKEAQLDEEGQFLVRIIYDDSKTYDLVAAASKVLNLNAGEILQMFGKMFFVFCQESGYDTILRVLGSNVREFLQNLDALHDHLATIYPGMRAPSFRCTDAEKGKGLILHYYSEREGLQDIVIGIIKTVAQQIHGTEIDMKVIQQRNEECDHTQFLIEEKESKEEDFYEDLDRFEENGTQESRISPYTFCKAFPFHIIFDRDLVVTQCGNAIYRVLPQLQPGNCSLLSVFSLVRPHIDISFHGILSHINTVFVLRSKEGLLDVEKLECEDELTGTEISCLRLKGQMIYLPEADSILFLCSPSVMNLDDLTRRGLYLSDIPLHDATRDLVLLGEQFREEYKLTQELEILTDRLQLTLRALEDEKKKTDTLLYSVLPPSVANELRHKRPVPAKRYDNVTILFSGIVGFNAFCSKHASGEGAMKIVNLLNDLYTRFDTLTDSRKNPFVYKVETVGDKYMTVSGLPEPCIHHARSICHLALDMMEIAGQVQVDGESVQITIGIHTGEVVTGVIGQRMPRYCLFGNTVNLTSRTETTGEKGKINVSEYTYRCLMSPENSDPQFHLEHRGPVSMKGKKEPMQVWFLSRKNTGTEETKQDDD
Assay: CHO cellular assay (cGMP production, HTRF)
Format: cell-based
Details: CHO K1 clone 8E10 overexpressing human sGC, Cisbio HTRF, 1 h room temperature, 1 mM IBMX, 20 uM ODQ, minimum quantification limit 0.5 nM
Outline: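 Stable CHO K1 clone expressing human GUCYA3/GUCYB3. Compounds applied 1 h at room temperature in HBSS, 0.1% BSA, 1 mM IBMX, 20 uM ODQ, 0.5% DMSO. cGMP measured by HTRF and interpolated from a standard curve; EC50 from 4-parameter sigmoidal fit.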

Row | EC50 | Structure (SMILES)
1 | 2 nM | O=C(O)c1cnn(-c2cccc(-c3sccc3COc3ccc(C4CCN(C(=O)C5CC5)CC4)cn3)n2)c1C(F)(F)F [Example 6-19, 1-(6-(3-(((5-(1-(Cyclopropanecarbonyl)piperidin-4-yl)pyridin-2-yl)oxy)methyl)thiophen-2-yl)pyridin-2-yl)-5-(trifluoromethyl)-1H-pyrazole-4-carboxylic acid]
2 | ≤ 0.5 nM | CCC(=O)N1CCC(c2ccc(OCc3cc(C)sc3-c3cccc(-n4ncc(C(=O)O)c4C(F)(F)F)n3)c(C)c2)CC1 [Example 21, 1-(6-(5-Methyl-3-((2-methyl-4-(1-propionylpiperidin-4-yl)phenoxy)methyl)thiophen-2-yl)pyridin-2-yl)-5-(trifluoromethyl)-1H-pyrazole-4-carboxylic acid]
3 | 678 nM | CCC(=O)N1CCC(c2ccc(OCc3cc(C(C)C)sc3-c3cccc(-n4ncc(C(=O)O)c4C(F)(F)F)n3)c(C)c2)CC1 [Example 35-2, 1-(6-(5-Isopropyl-3-((2-methyl-4-(1-propionylpiperidin-4-yl)phenoxy)methyl)thiophen-2-yl)pyridin-2-yl)-5-(trifluoromethyl)-1H-pyrazole-4-carboxylic acid]
4 | 33 nM | Cc1c(OCc2ccsc2-c2cccc(-n3ncc(C(=O)O)c3C(F)(F)F)n2)ccc(C2CCN(C(=O)C3CC3)CC2)c1C [Example 6-2, 1-(6-(3-((4-(1-(Cyclopropanecarbonyl)piperidin-4-yl)-2,3-dimethylphenoxy)methyl)thiophen-2-yl)pyridin-2-yl)-5-(trifluoromethyl)-1H-pyrazole-4-carboxylic acid]
5 | ≤ 0.5 nM | CCc1cc(OCc2ccsc2-c2cccc(-n3ncc(C(=O)O)c3C)n2)ccc1C1CCN(C(=O)C2CC2)CC1 [Example 10-1, 1-(6-(3-((4-(1-(Cyclopropanecarbonyl)piperidin-4-yl)-3-ethylphenoxy)methyl)thiophen-2-yl)pyridin-2-yl)-5-methyl-1H-pyrazole-4-carboxylic acid]
6 | 1.4 nM | COC(=O)N1CCC(c2ccc(OCc3cc(C)sc3-c3cccc(-n4ncc(C(=O)O)c4C(F)(F)F)n3)c(C)c2)CC1 [Example 3, 1-(6-(3-((4-(1-(Methoxycarbonyl)piperidin-4-yl)-2-methylphenoxy)methyl)-5-methylthiophen-2-yl)pyridin-2-yl)-5-(trifluoromethyl)-1H-pyrazole-4-carboxylic acid]
7 | 5.5 nM | CCC(=O)N1CCC(c2ccc(OCc3ccsc3-c3cccc(-n4ncc(C(=O)O)c4C(F)(F)F)n3)c(C)c2)CC1 [Example 2-5, 1-(6-(3-((2-Methyl-4-(1-propionylpiperidin-4-yl)phenoxy)methyl)thiophen-2-yl)pyridin-2-yl)-5-(trifluoromethyl)-1H-pyrazole-4-carboxylic acid]
8 | 2 nM | COc1cc(C2CCN(C(=O)C3CC3)CC2)ccc1OCc1ccsc1-c1cccc(-n2ncc(C(=O)O)c2C(F)(F)F)n1 [Example 6-4, 1-(6-(3-((4-(1-(Cyclopropanecarbonyl)piperidin-4-yl)-2-methoxyphenoxy)methyl)thiophen-2-yl)pyridin-2-yl)-5-(trifluoromethyl)-1H-pyrazole-4-carboxylic acid]
9 | ≤ 0.5 nM | CCc1cc(OCc2c(C)csc2-c2cccc(-n3ncc(C(=O)O)c3C(F)(F)F)n2)ccc1C1CCN(C(=O)C2CC2)CC1 [Example 10-5, 1-(6-(3-((4-(1-(Cyclopropanecarbonyl)piperidin-4-yl)-3-ethylphenoxy)methyl)-4-methylthiophen-2-yl)pyridin-2-yl)-5-(trifluoromethyl)-1H-pyrazole-4-carboxylic acid]
10 | 887 nM | Cc1cc(C2CCN(C(=O)C3CNC3)CC2)ccc1OCc1ccsc1-c1cccc(-n2ncc(C(=O)O)c2C(F)(F)F)n1 [Example 43, 1-(6-(3-((4-(1-(Azetidine-3-carbonyl)piperidin-4-yl)-2-methylphenoxy)methyl)thiophen-2-yl)pyridin-2-yl)-5-(trifluoromethyl)-1H-pyrazole-4-carboxylic acid]
11 | 2 nM | Cc1cc(COc2ccc(C3CCN(C(=O)C4CC4)CC3)c(C)c2)c(-c2cccc(-n3ncc(C(=O)O)c3C(F)(F)F)n2)s1 [Example 35-4, 1-(6-(3-((4-(1-(Cyclopropanecarbonyl)piperidin-4-yl)-3-methylphenoxy)methyl)-5-methylthiophen-2-yl)pyridin-2-yl)-5-(trifluoromethyl)-1H-pyrazole-4-carboxylic acid]
12 | 2 nM | CCC(=O)N1CCC(c2cc(C)c(OCc3ccsc3-c3cccc(-n4ncc(C(=O)O)c4C(F)(F)F)n3)c(C)c2)CC1 [Example 4-1]

Continued, compound first:

Row | Structure (SMILES) | EC50
13 | O=C(O)c1cnn(-c2cccc(-c3sccc3COc3ccc(C4CCN(CC(F)(F)F)CC4)cc3)n2)c1C(F)(F)F [Example 14-1, 1-(6-(3-((4-(1-(2,2,2-Trifluoroethyl)piperidin-4-yl)phenoxy)methyl)thiophen-2-yl)pyridin-2-yl)-5-(trifluoromethyl)-1H-pyrazole-4-carboxylic acid] | 12 nM
14 | O=C(O)c1cnn(-c2cccc(-c3sccc3COc3ccc4c(c3)CCN(Cc3ccccn3)C4)n2)c1C(F)(F)F [Example 23, 1-(6-(3-(((2-(Pyridin-2-ylmethyl)-1,2,3,4-tetrahydroisoquinolin-6-yl)oxy)methyl)thiophen-2-yl)pyridin-2-yl)-5-(trifluoromethyl)-1H-pyrazole-4-carboxylic acid] | 38 nM
15 | Cc1cc(C2CCN(CC(F)(F)F)CC2)ccc1OCc1cc(C(C)C)sc1-c1cccc(-n2ncc(C(=O)O)c2C(F)(F)F)n1 [Example 40, 1-(6-(5-Isopropyl-3-((2-methyl-4-(1-(2,2,2-trifluoroethyl)piperidin-4-yl)phenoxy)methyl)thiophen-2-yl)pyridin-2-yl)-5-(trifluoromethyl)-1H-pyrazole-4-carboxylic acid] | 370 nM
16 | Cc1c(OCc2ccsc2-c2cccc(-n3ncc(C(=O)O)c3C(F)(F)F)n2)ccc2c1CCN(Cc1ccccn1)C2 [Example 10-7, 1-(6-(3-(((5-Methyl-2-(pyridin-2-ylmethyl)-1,2,3,4-tetrahydroisoquinolin-6-yl)oxy)methyl)thiophen-2-yl)pyridin-2-yl)-5-(trifluoromethyl)-1H-pyrazole-4-carboxylic acid] | 37 nM
17 | Cc1cc(CNc2ccc(C3CCN(C(=O)C4CC4)CC3)cc2)c(-c2cccc(-n3ncc(C(=O)O)c3C)n2)s1 [Example 16-3, 1-(6-(3-(((4-(1-(Cyclopropanecarbonyl)piperidin-4-yl)phenyl)amino)methyl)-5-methylthiophen-2-yl)pyridin-2-yl)-5-methyl-1H-pyrazole-4-carboxylic acid] | ≤ 0.5 nM
18 | CCc1cc(OCc2cc(C)sc2-c2cccc(-n3ncc(C(=O)O)c3C(F)(F)F)n2)ccc1C1CCN(C(=O)C(C)(C)CO)CC1 [Example 12-10, 1-(6-(3-((3-Ethyl-4-(1-(3-hydroxy-2,2-dimethylpropanoyl)piperidin-4-yl)phenoxy)methyl)-5-methylthiophen-2-yl)pyridin-2-yl)-5-(trifluoromethyl)-1H-pyrazole-4-carboxylic acid] | 33 nM
19 | CCc1cc(OCc2cc(C)sc2-c2cccc(-n3ncc(C(=O)O)c3C(F)(F)F)n2)ccc1C1CCN(C(=O)C(O)CO)CC1 (racemic) [Example 44, (±)-1-(6-(3-((4-(1-(2,3-Ddihydroxypropanoyl)piperidin-4-yl)-3-ethylphenoxy)methyl)-5-methylthiophen-2-yl)pyridin-2-yl)-5-(trifluoromethyl)-1H-pyrazole-4-carboxylic acid] | 130 nM
20 | CCc1cc(OCc2cc(C)sc2-c2cccc(-n3ncc(C(=O)O)c3C)n2)ccc1C1CCN(C(=O)CC2CC2)CC1 [Example 12-8, 1-(6-(3-((4-(1-(2-Cyclopropylacetyl)piperidin-4-yl)-3-ethylphenoxy)methyl)-5-methylthiophen-2-yl)pyridin-2-yl)-5-methyl-1H-pyrazole-4-carboxylic acid] | 4.4 nM and 1 nM
